These results are taken from patent publication US8466163B2 (Bionomics Limited, priority 2006, dated 2013).

Bounds are passed on as bounds.

One experiment deals with tubulin. As to the kind of experiment: Tubulin polymerisation inhibitor (TPI) assay. Format: biochemical. Conditions: concentration required to inhibit the extent of tubulin polymerisation by 50%.
The subject of experiment [1] is Activated human umbilical vein endothelial cells (HUVECs). As to the kind of experiment: Inhibition of proliferation of activated HUVEC cells. Format: cell-based. Particulars: concentration required to inhibit proliferation by 50%, value falls within the range of concentrations given or >1000 nM.

In general, IC50 refers to the concentration that gives 50% inhibition. Turning to `COc1ccc(-c2sc3nc(OC)ncc3c2C(=O)c2cc(OC)c(OC)c(OC)c2)cc1` [Example 19, 2-Methoxy-6-(4-methoxyphenyl)-5-(3,4,5-trimethoxybenzoyl)-thiopheno[2,3-d]pyrimidine], the IC50 with tubulin is > 40 µM; in experiment [1] (Homo sapiens, HUVEC), > 1 µM.

`COc1cc(-c2c(-c3ccc4c(ccn4C)c3)oc3[nH]c(=O)ncc23)cc(OC)c1OC` [Example 4, 6-(1-Methyl-1H-indol-5-yl)-5-(3,4,5-trimethoxy-phenyl)-1H-furo[2,3-d]pyrimidin-2-one] came in with an IC50 in experiment [1] (Homo sapiens, HUVEC) of 0.001 to 0.01 µM.

With `COc1ccc(-c2oc3nc(OC)ccc3c2C(=O)c2cc(OC)c(OC)c(OC)c2)cc1` [Example 20, 6-methoxy-2-(4-methoxyphenyl)-3-(3,4,5-trimethoxybenzoyl)furo[2,3-b]pyridine], the 50% inhibitory concentration (IC50) with tubulin was ~2 µM; in experiment [1] (Homo sapiens, HUVEC), 0.1 to 1 µM.

With `COc1ccc(-c2oc3cc(OC)cnc3c2C(=O)c2cc(OC)c(OC)c(OC)c2)cc1` [Example 22, 6-methoxy-2-(4-methoxyphenyl)-3-(3,4,5-trimethoxybenzoyl)furo [3,2-b]pyridine], the concentration for half-maximal inhibition (IC50) with tubulin is < 4 µM; in experiment [1] (Homo sapiens, HUVEC), 0.1 to 1 µM.

Consider `COc1cc(C(=O)c2c(-c3cnn(C)c3)oc3c(=O)c(OC)c[nH]c23)cc(OC)c1OC` [Example 30, 6-Methoxy-2-(1-methyl-1H-pyrazol-4-yl)-3-(3,4,5-trimethoxybenzoyl)-4H-furo[3,2-b]pyridin-7-one], for which the IC50 in experiment [1] (Homo sapiens, HUVEC) is > 1 µM.

For `COc1ccc(-c2oc3cc(OC)cnc3c2-c2cc(OC)c(OC)c(OC)c2)cc1` [Example 23, 6-methoxy-2-(4-methoxyphenyl)-3-(3,4,5-trimethoxyphenyl)furo[3,2-b]pyridine], the IC50 in the experiment on tubulin was ~10 µM; in experiment [1] (Homo sapiens, HUVEC) it was > 1 µM.

In the case of `COc1cc(-c2c(-c3ccco3)oc3[nH]c(=O)ncc23)cc(OC)c1OC` [Example 3, 6-(2-furyl)-5-(3,4,5-trimethoxyphenyl)furo[2,3-d]pyrimidin-2(11)-one], the IC50 in experiment [1] (Homo sapiens, HUVEC) is > 1 µM.

In the case of `COc1ccc(-c2oc3[nH]c(=O)ncc3c2-c2cc(OC)c(OC)c(OC)c2)cc1O` [Example 7, 6-(3-Hydroxy-4-methoxy-phenyl)-5-(3,4,5-trimethoxy-phenyl)-1H-furo[2,3-d]pyrimidinone], the IC50 in experiment [1] (Homo sapiens, HUVEC) was in the range of 0.01 to 0.1 µM.

Take `COc1ccc(-c2oc3[nH]c(=O)ncc3c2-c2cc(OC)c(OC)c(OC)c2)cc1` [Example 1]: the IC50 in the experiment with tubulin is 2 µM; in experiment [1] (Homo sapiens, HUVEC), 0.01 to 0.1 µM.

On to `COc1ccc(-c2oc3c(cnc(=O)n3C)c2C(=O)c2cc(OC)c(OC)c(OC)c2)cc1` [Example 15], for which, in the experiment on tubulin, the IC50 is > 40 µM.

As to `COc1ccc(-c2oc3nc(OC)ccc3c2-c2cc(OC)c(OC)c(OC)c2)cc1` [Example 21, 6-methoxy-2-(4-methoxyphenyl)-3-(3,4,5-trimethoxyphenyl)furo[2,3-b]pyridine], the IC50 in the experiment on tubulin was > 40 µM.

Regarding `COc1ccc(-c2oc3[nH]c(=O)ncc3c2-c2cc(OC)c(OC)c(OC)c2)cn1` [Example 5, 6-(6-methoxypyridin-3-yl)-5-(3,4,5-trimethoxyphenyl)furo[2,3-d]pyrimidin-2(1H)-one], the IC50 in experiment [1] (Homo sapiens, HUVEC) is 0.1 to 1 µM.

`COc1ccc(-c2oc3[nH]c(=O)ncc3c2C(=O)c2cc(OC)c(OC)c(OC)c2)cc1` [Example 13]: the IC50 with tubulin is > 40 µM.

For the compound `COc1ccc(-c2oc3[nH]c(=O)ccc3c2-c2cc(OC)c(OC)c(OC)c2)cc1` [Example 26, 2-(4-Methoxyphenyl)-3-(3,4,5-trimethoxyphenyl)furo[2,3-b]pyridin-6-one], the IC50 in experiment [1] (Homo sapiens, HUVEC) was in the range of 0.1 to 1 µM.

Take `COc1ccc(-c2oc3c(Br)c(OC)cnc3c2C(=O)c2cc(OC)c(OC)c(OC)c2)cc1` [Example 28, 7-Bromo-6-methoxy-2-(4-methoxyphenyl)-3-(3,4,5-trimethoxybenzoyl)-furo[3,2-b]pyridine]: in experiment [1] (Homo sapiens, HUVEC), the IC50 fell in the range of 0.1 to 1 µM.

As to “6-(3-amino-4-methoxyphenyl)-5-(3-hydroxy-4,5-dimethoxyphenyl)furo[2,3-d]pyrimidin-2(1H)-one hydrochloride [Example 10]”, in experiment [1], the IC50 is > 1 µM.

For `COc1ccc(-c2oc3nc(OC)ncc3c2-c2cc(OC)c(OC)c(OC)c2)cc1` [Example 17, 2-Methoxy-6-(4-methoxyphenyl)-5-(3,4,5-trimethoxyphenyl)-furo[2,3-d]pyrimidine], the IC50 in the experiment on tubulin is > 40 µM.

In the case of `COc1ccc(-c2sc3nc(SC)ncc3c2C(=O)c2cc(OC)c(OC)c(OC)c2)cc1` [Example 18, 2-Thiomethoxy-6-(4-methoxyphenyl)-5-(3,4,5-trimethoxybenzoyl)-thiopheno [2,3-d]pyrimidine], the IC50 with tubulin is > 40 µM.

Take `COc1ccc(-c2c(-c3cc(OC)c(OC)c(OC)c3)oc3[nH]c(=O)ncc23)cc1` [Example 2, 6-(2-(3,4,5-trimethoxyphenyl))-5-(4-methoxyphenyl)furo[2,3-d]pyrimidin-2(1H)-one]: the concentration for half-maximal inhibition (IC50) with tubulin is 4 to 10 µM; in experiment [1] (Homo sapiens, HUVEC), 0.1 to 1 µM.

As for `COc1ccc(-c2oc3nc(OC)cnc3c2C(=O)c2cc(OC)c(OC)c(OC)c2)cc1` [Example 25, 3-methoxy-6-(4-methoxyphenyl)-7-(3,4,5-trimethoxybenzoyl)furo[2,3-b]pyrazine], the IC50 in the experiment on tubulin is < 4 µM; in experiment [1] (Homo sapiens, HUVEC) it was 0.01 to 0.1 µM.

`COc1ccc(-c2oc3[nH]c(=O)ncc3c2-c2cc(OC)c(OC)c(OC)c2)c(O)c1O` [Example 8, 6-(2,3-Dihydroxy-4-methoxy-phenyl)-5-(3,4,5-trimethoxy-phenyl)-1H-furo[2,3-d]pyrimidin-2-one]: the 50% inhibitory concentration (IC50) in experiment [1] (Homo sapiens, HUVEC) was > 1 µM.

With `COc1ccc(-c2oc3nc(Cl)ncc3c2-c2cc(OC)c(OC)c(OC)c2)cc1` [Example 16, 2-Chloro-6-(4-methoxyphenyl)-5-(3,4,5-trimethoxy-phenyl)-furo[2,3-d]pyrimidine], the IC50 in the experiment with tubulin fell in the range of 10 to 40 µM.

Turning to `COc1ccc(-c2oc3cc(OC)ncc3c2C(=O)c2cc(OC)c(OC)c(OC)c2)cc1` [Example 24, 6-methoxy-2-(4-methoxyphenyl)-3-(3,4,5-trimethoxybenzoyl)furo[3,2-c]pyridine], the IC50 with tubulin is < 4 µM; in experiment [1] (Homo sapiens, HUVEC) it was 0.1 to 1 µM.

As for `COc1ccc(-c2oc3nc(OC)ncc3c2C(=O)c2cc(OC)c(OC)c(OC)c2)cc1` [Example 27], the IC50 in experiment [1] (Homo sapiens, HUVEC) fell in the range of 0.1 to 1 µM.
